Values after ≈ are worked out from the molar mass of the structure shown.
Tested on: Pichia kudriavzevii
Experiment: Antifungal activity against 16 days cultured Candida krusei isolated from neutropenic subject with AML or MDS pharynx receiving antifungal therapy for 19 days after 6 days of prophylaxis by broth microdilution method
Format: functional
Conditions: not given

**Q.** Which MIC does the source give for CCC(C)n1ncn(-c2ccc(N3CCN(c4ccc(OCC5COC(Cn6cncn6)(c6ccc(Cl)cc6Cl)O5)cc4)CC3)cc2)c1=O (configuration not stated) [ITRACONAZOLE] here?
**A.** Its MIC is 0.5 µg/mL (≈ 0.709 µM).

Tested on: Nakaseomyces glabratus
Experiment: Antifungal activity against Candida glabrata isolated from neutropenic subject 1102 with AML or MDS stool after 26 days prophylaxis by broth microdilution method
Format: functional
Conditions: 624 h

**Q.** For CCC(C)n1ncn(-c2ccc(N3CCN(c4ccc(OCC5COC(Cn6cncn6)(c6ccc(Cl)cc6Cl)O5)cc4)CC3)cc2)c1=O (configuration not stated) [ITRACONAZOLE], which MIC is on record?
**A.** Its MIC is 1 µg/mL (≈ 1.42 µM).

Tested on: Nakaseomyces glabratus
Experiment: Antifungal activity against Candida glabrata isolated from neutropenic subject 1187 with AML or MDS stool receiving antifungal drug after 22 days prophylaxis by broth microdilution method
Format: functional
Conditions: 528 h

**Q.** Which MIC does the source give for CCC(C)n1ncn(-c2ccc(N3CCN(c4ccc(OCC5COC(Cn6cncn6)(c6ccc(Cl)cc6Cl)O5)cc4)CC3)cc2)c1=O (configuration not stated) [ITRACONAZOLE] here?
**A.** The MIC was 4 µg/mL (≈ 5.67 µM).

Tested on: Pichia kudriavzevii
Experiment: Antifungal activity against 8 days cultured Candida krusei isolated from neutropenic subject with AML or MDS pharynx after 12 days of prophylaxis by broth microdilution method
Format: functional
Conditions: not given

**Q.** With CCC(C)n1ncn(-c2ccc(N3CCN(c4ccc(OCC5COC(Cn6cncn6)(c6ccc(Cl)cc6Cl)O5)cc4)CC3)cc2)c1=O (configuration not stated) [ITRACONAZOLE] as the molecule, how does the MIC read?
**A.** The MIC was 0.25 µg/mL (≈ 0.354 µM).

Tested on: Nakaseomyces glabratus
Experiment: Antifungal activity against Candida glabrata isolated from neutropenic subjects with AML or MDS prior to initiation of fluconazole therapy by broth microdilution method
Format: functional
Conditions: not given

**Q.** For CCC(C)n1ncn(-c2ccc(N3CCN(c4ccc(OCC5COC(Cn6cncn6)(c6ccc(Cl)cc6Cl)O5)cc4)CC3)cc2)c1=O (configuration not stated) [ITRACONAZOLE], which MIC50 is on record?
**A.** Its MIC50 is 0.5 µg/mL (≈ 0.709 µM).

**Q.** What about the MIC90 of the same molecule?
**A.** Its MIC90 is 2 µg/mL (≈ 2.83 µM).

Tested on: Nakaseomyces glabratus
Experiment: Antifungal activity against Candida glabrata isolated from HSCT recipient 497 with acute or chronic GVHD mouth receiving antifungal drug after 114 days prophylaxis by broth microdilution method
Format: functional
Conditions: not given

**Q.** For CCC(C)n1ncn(-c2ccc(N3CCN(c4ccc(OCC5COC(Cn6cncn6)(c6ccc(Cl)cc6Cl)O5)cc4)CC3)cc2)c1=O (configuration not stated) [ITRACONAZOLE], which MIC is on record?
**A.** Its MIC is 8 µg/mL (≈ 11.3 µM).

Tested on: Nakaseomyces glabratus
Experiment: Antifungal activity against Candida glabrata isolated from HSCT recipient 002 with acute or chronic GVHD mouth receiving antifungal drug after 116 days prophylaxis by broth microdilution method
Format: functional
Conditions: not given

**Q.** Which MIC does the source give for CCC(C)n1ncn(-c2ccc(N3CCN(c4ccc(OCC5COC(Cn6cncn6)(c6ccc(Cl)cc6Cl)O5)cc4)CC3)cc2)c1=O (configuration not stated) [ITRACONAZOLE] here?
**A.** The MIC was greater than 8 µg/mL.

Tested on: Nakaseomyces glabratus
Experiment: Antifungal activity against 29 days cultured Candida glabrata isolated from neutropenic subject with AML or MDS pharynx after 48 days of prophylaxis by broth microdilution method
Format: functional
Conditions: not given

**Q.** With CCC(C)n1ncn(-c2ccc(N3CCN(c4ccc(OCC5COC(Cn6cncn6)(c6ccc(Cl)cc6Cl)O5)cc4)CC3)cc2)c1=O (configuration not stated) [ITRACONAZOLE] as the molecule, how does the MIC read?
**A.** The MIC was 8 µg/mL (≈ 11.3 µM).

Tested on: Nakaseomyces glabratus
Experiment: Antifungal activity against 31 days cultured Candida glabrata isolated from HSCT recipient with acute or chronic GVHD mouth receiving antifungal therapy for 31 days after 28 days of prophylaxis by broth microdilution method
Format: functional
Conditions: not given

**Q.** With CCC(C)n1ncn(-c2ccc(N3CCN(c4ccc(OCC5COC(Cn6cncn6)(c6ccc(Cl)cc6Cl)O5)cc4)CC3)cc2)c1=O (configuration not stated) [ITRACONAZOLE] as the molecule, how does the MIC read?
**A.** Its MIC is less than 1 µg/mL.

Tested on: Saccharomyces cerevisiae
Experiment: Antifungal activity against Saccharomyces cerevisiae isolated from HSCT recipient 513 with acute or chronic GVHD mouth after 112 days prophylaxis by broth microdilution method
Format: functional
Conditions: not given

**Q.** For CCC(C)n1ncn(-c2ccc(N3CCN(c4ccc(OCC5COC(Cn6cncn6)(c6ccc(Cl)cc6Cl)O5)cc4)CC3)cc2)c1=O (configuration not stated) [ITRACONAZOLE], which MIC is on record?
**A.** The MIC was 0.5 µg/mL (≈ 0.709 µM).

Tested on: Nakaseomyces glabratus
Experiment: Antifungal activity against Candida glabrata isolated from HSCT recipients with acute or chronic GVHD prior to initiation of posaconazole therapy assessed as maximum MIC by broth microdilution method
Format: functional
Conditions: not given

**Q.** CCC(C)n1ncn(-c2ccc(N3CCN(c4ccc(OCC5COC(Cn6cncn6)(c6ccc(Cl)cc6Cl)O5)cc4)CC3)cc2)c1=O (configuration not stated) [ITRACONAZOLE] was tested. Which MIC did it give?
**A.** The MIC was 8 µg/mL.

Tested on: Nakaseomyces glabratus
Experiment: Antifungal activity against Candida glabrata isolated from neutropenic subjects with AML or MDS receiving posaconazole by broth microdilution method
Format: functional
Conditions: not given

**Q.** How did the MIC50 turn out when CCC(C)n1ncn(-c2ccc(N3CCN(c4ccc(OCC5COC(Cn6cncn6)(c6ccc(Cl)cc6Cl)O5)cc4)CC3)cc2)c1=O (configuration not stated) [ITRACONAZOLE] was run?
**A.** The MIC50 was 0.5 µg/mL (≈ 0.709 µM).

**Q.** What about the MIC90 of the same molecule?
**A.** The MIC90 was 8 µg/mL (≈ 11.3 µM).

Tested on: Nakaseomyces glabratus
Experiment: Antifungal activity against Candida glabrata isolated from HSCT recipient 474 with acute or chronic GVHD mouth after 124 days prophylaxis by broth microdilution method
Format: functional
Conditions: not given

**Q.** How did the MIC turn out when CCC(C)n1ncn(-c2ccc(N3CCN(c4ccc(OCC5COC(Cn6cncn6)(c6ccc(Cl)cc6Cl)O5)cc4)CC3)cc2)c1=O (configuration not stated) [ITRACONAZOLE] was run?
**A.** The MIC was 4 µg/mL (≈ 5.67 µM).

Tested on: Nakaseomyces glabratus
Experiment: Antifungal activity against Candida glabrata isolated from HSCT recipient 186 with acute or chronic GVHD mouth after 112 days prophylaxis by broth microdilution method
Format: functional
Conditions: not given

**Q.** How did the MIC turn out when CCC(C)n1ncn(-c2ccc(N3CCN(c4ccc(OCC5COC(Cn6cncn6)(c6ccc(Cl)cc6Cl)O5)cc4)CC3)cc2)c1=O (configuration not stated) [ITRACONAZOLE] was run?
**A.** Its MIC is 0.5 µg/mL (≈ 0.709 µM).

Tested on: Nakaseomyces glabratus
Experiment: Antifungal activity against 85 days cultured Candida glabrata isolated from HSCT recipient with acute or chronic GVHD mouth receiving antifungal therapy for 143 days after 116 days of prophylaxis by broth microdilution method
Format: functional
Conditions: not given

**Q.** For CCC(C)n1ncn(-c2ccc(N3CCN(c4ccc(OCC5COC(Cn6cncn6)(c6ccc(Cl)cc6Cl)O5)cc4)CC3)cc2)c1=O (configuration not stated) [ITRACONAZOLE], which MIC is on record?
**A.** Its MIC is 8 µg/mL (≈ 11.3 µM).

Tested on: Nakaseomyces glabratus
Experiment: Antifungal activity against 15 days cultured Candida glabrata isolated from HSCT recipient with acute or chronic GVHD mouth receiving antifungal therapy for 168 days after 113 days of prophylaxis by broth microdilution method
Format: functional
Conditions: not given

**Q.** Which MIC does the source give for CCC(C)n1ncn(-c2ccc(N3CCN(c4ccc(OCC5COC(Cn6cncn6)(c6ccc(Cl)cc6Cl)O5)cc4)CC3)cc2)c1=O (configuration not stated) [ITRACONAZOLE] here?
**A.** Its MIC is 4 µg/mL (≈ 5.67 µM).

Tested on: Pichia kudriavzevii
Experiment: Antifungal activity against 16 days cultured Candida krusei isolated from neutropenic subject with AML or MDS stool receiving antifungal therapy for 19 days after 6 days of prophylaxis by broth microdilution method
Format: functional
Conditions: not given

**Q.** CCC(C)n1ncn(-c2ccc(N3CCN(c4ccc(OCC5COC(Cn6cncn6)(c6ccc(Cl)cc6Cl)O5)cc4)CC3)cc2)c1=O (configuration not stated) [ITRACONAZOLE] was tested. Which MIC did it give?
**A.** The MIC was 0.25 µg/mL (≈ 0.354 µM).

Tested on: Nakaseomyces glabratus
Experiment: Antifungal activity against 19 days cultured Candida glabrata isolated from HSCT recipient with acute or chronic GVHD mouth after 17 days of prophylaxis by broth microdilution method
Format: functional
Conditions: not given

**Q.** Which MIC does the source give for CCC(C)n1ncn(-c2ccc(N3CCN(c4ccc(OCC5COC(Cn6cncn6)(c6ccc(Cl)cc6Cl)O5)cc4)CC3)cc2)c1=O (configuration not stated) [ITRACONAZOLE] here?
**A.** Its MIC is greater than 8 µg/mL.

Tested on: Nakaseomyces glabratus
Experiment: Antifungal activity against Candida glabrata isolated from neutropenic subjects with AML or MDS receiving fluconazole by broth microdilution method
Format: functional
Conditions: not given

**Q.** CCC(C)n1ncn(-c2ccc(N3CCN(c4ccc(OCC5COC(Cn6cncn6)(c6ccc(Cl)cc6Cl)O5)cc4)CC3)cc2)c1=O (configuration not stated) [ITRACONAZOLE] was tested. Which MIC50 did it give?
**A.** Its MIC50 is 0.5 µg/mL (≈ 0.709 µM).

**Q.** What about the MIC90 of the same molecule?
**A.** The MIC90 was 2 µg/mL (≈ 2.83 µM).

Source: ChEMBL document CHEMBL1687752, “Impact of antifungal prophylaxis on colonization and azole susceptibility of Candida species” (2009)
